Data: ChEMBL document CHEMBL5113405, “Discovery, enantioselective synthesis of myrtucommulone E analogues as tyrosyl-DNA phosphodiesterase 2 inhibitors and their biological activities” (Eur J Med Chem, 2022)
Activity calls are given as the source filed them. The calls are words filed in the database; no cut-off is given here.

How the values were obtained:
[1] = system: DU-145; experiment: Cytotoxicity against human DU-145 cells assessed as cell growth inhibition for 72 hrs by MTT assay; type: functional
[2] = target: T1, Tyrosyl-DNA phosphodiesterase 2 (Homo sapiens, UniProt O95551); experiment: Inhibition of N-terminal His-tagged human TDP2 expressed in Escherichia coli BL21 using 4-nitrophenyl phenylphosphonate as substrate incubated for 60 mins by EDTA based chromogenic assay
T1 sequence (O95551 whole entry): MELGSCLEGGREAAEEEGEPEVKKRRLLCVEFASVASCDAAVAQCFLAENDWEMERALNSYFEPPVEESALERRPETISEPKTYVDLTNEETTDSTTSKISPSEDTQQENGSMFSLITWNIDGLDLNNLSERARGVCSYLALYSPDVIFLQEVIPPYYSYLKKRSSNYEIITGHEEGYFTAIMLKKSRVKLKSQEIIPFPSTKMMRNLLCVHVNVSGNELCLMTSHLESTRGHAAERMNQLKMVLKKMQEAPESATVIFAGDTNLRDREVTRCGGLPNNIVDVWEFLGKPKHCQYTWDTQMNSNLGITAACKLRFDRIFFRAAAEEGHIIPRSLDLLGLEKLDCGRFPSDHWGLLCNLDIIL

[3] = system: A549; experiment: Cytotoxicity against human A549 cells assessed as cell growth inhibition for 72 hrs by MTT assay; type: functional
[4] = Induction of reactive oxygen species production assessed as increase in hydrogen peroxide production […] in presence of DTT by redox cycling assay; type: functional
[5] = system: DU-145; experiment: Cytotoxicity against human DU-145 cells assessed as cell growth inhibition at 10 uM for 72 hrs by MTT assay; type: functional

| SMILES | GI50 ([1]; 72 h) [µM] | IC50 [2] [µM] | GI50 ([3]; 72 h) [µM] | GI50 ([1]; Homo sapiens, DU-145, 72 h) [µM] | GI50 ([3]; Homo sapiens, A549, 72 h) [µM] | Activity [4] | inhibition at 10 µM [5] [%] |
| --- | --- | --- | --- | --- | --- | --- | --- |
| CC(C)C1C2=C(Oc3c1c(O)cc1c3C(C(C)C)C3=C(O1)C(C)(C)C(=O)C(C)(C)C3=O)C(C)(C)C(=O)C(C)(C)C2=O (racemic; form 2) | 15 | 32 | 44 |  |  |  |  |
| CCN(CC)CCOc1cc2c(c3c1[C@H](C(C)C)C1=C(O3)C(C)(C)C(=O)C(C)(C)C1=O)[C@@H](C(C)C)C1=C(O2)C(C)(C)C(=O)C(C)(C)C1=O |  | 53 |  | 23 | 46 |  |  |
| COc1c(C(=O)C(C)C)c2c(c3c1[C@@H](C(C)C)C1=C(O3)C(C)(C)C(=O)C(C)(C)C1=O)[C@@H](C(C)C)C1=C(O2)C(C)(C)C(=O)C(C)(C)C1=O (racemic) |  | 57 |  | 20 | 32 |  |  |
| CC(C)[C@@H]1C2=C(Oc3c1c(O)cc1c3[C@H](C(C)C)C3=C(O1)C(C)(C)C(=O)C(C)(C)C3=O)C(C)(C)C(=O)C(C)(C)C2=O |  | 36 |  | 26 | 56 |  |  |
| COc1cc(O)c2c(c1C(=O)C(C)C)OC1=C(C(=O)C(C)(C)C(=O)C1(C)C)[C@H]2C(C)C |  | > 100 |  | 16 | 30 |  |  |
| CC(C)C(=O)c1c(O)c2c(c3c1OC1=C(C(=O)C(C)(C)C(=O)C1(C)C)[C@H]3C(C)C)OC1=C(C(=O)C(C)(C)C(=O)C1(C)C)[C@@H]2C(C)C (racemic) | 17 | 41 | 26 |  |  |  |  |
| CC(C)[C@H]1C2=C(Oc3c1c(O)cc1c3[C@@H](C(C)C)C3=C(O1)C(C)(C)C(=O)C(C)(C)C3=O)C(C)(C)C(=O)C(C)(C)C2=O |  | 32 |  | 16 | 38 |  |  |
| CC(C)C1C2=C(Oc3c1c(O)cc1c3C(C(C)C)C3=C(O1)C(C)(C)C(=O)C(C)(C)C3=O)C(C)(C)C(=O)C(C)(C)C2=O (racemic; form 1) |  | 29 |  | 13 | 26 |  |  |
| Cc1ccc(COc2cc3c(c4c2[C@H](C(C)C)C2=C(O4)C(C)(C)C(=O)C(C)(C)C2=O)[C@@H](C(C)C)C2=C(O3)C(C)(C)C(=O)C(C)(C)C2=O)cc1 |  | 31 |  | 15 | 29 |  |  |
| CC(C)[C@@H]1C2=C(Oc3c1c(OCCCN1CCCC1)cc1c3[C@@H](C(C)C)C3=C(O1)C(C)(C)C(=O)C(C)(C)C3=O)C(C)(C)C(=O)C(C)(C)C2=O |  | 19 |  | 38 | 50 |  |  |
| COc1cc(O)c2c(c1C(=O)C(C)C)OC1=C(C(=O)C(C)(C)C(=O)C1(C)C)[C@@H]2C(C)C |  | > 100 |  | 28 | 50 |  |  |
| CC(C)[C@@H]1C2=C(Oc3cc(O)c4c(c31)OC1=C(C(=O)C(C)(C)C(=O)C1(C)C)[C@@H]4C(C)C)C(C)(C)C(=O)C(C)(C)C2=O |  | 34 |  | 28 | 32 |  |  |
| CC(C)[C@@H]1C2=C(Oc3c1c(OCCN(C)C)cc1c3[C@@H](C(C)C)C3=C(O1)C(C)(C)C(=O)C(C)(C)C3=O)C(C)(C)C(=O)C(C)(C)C2=O |  | 11 |  | 22 | 54 |  |  |
| CC(C)[C@@H]1C2=C(Oc3c1c(OCc1ccccc1)cc1c3[C@@H](C(C)C)C3=C(O1)C(C)(C)C(=O)C(C)(C)C3=O)C(C)(C)C(=O)C(C)(C)C2=O |  | 54 |  | 19 | 36 |  |  |
| COc1c(C(=O)C(C)C)c2c(c3c1[C@@H](C(C)C)C1=C(O3)C(C)(C)C(=O)C(C)(C)C1=O)[C@H](C(C)C)C1=C(O2)C(C)(C)C(=O)C(C)(C)C1=O (racemic) |  | 55 |  | 13 | 31 |  |  |
| CC(C)[C@@H]1C2=C(Oc3c1c(OCCC1OCCO1)cc1c3[C@@H](C(C)C)C3=C(O1)C(C)(C)C(=O)C(C)(C)C3=O)C(C)(C)C(=O)C(C)(C)C2=O |  | 17 |  | 12 | 21 |  |  |
| CCOC(CCCOc1cc2c(c3c1[C@H](C(C)C)C1=C(O3)C(C)(C)C(=O)C(C)(C)C1=O)[C@@H](C(C)C)C1=C(O2)C(C)(C)C(=O)C(C)(C)C1=O)OCC |  | 41 |  | 27 | 62 |  |  |
| CC1(C)CCC2=C(O1)c1ccccc1C(=O)C2=O |  |  |  |  |  | Active |  |
| CC(C)C(=O)c1c(O)c2c(c3c1OC1=C(C(=O)C(C)(C)C(=O)C1(C)C)[C@@H]3C(C)C)OC1=C(C(=O)C(C)(C)C(=O)C1(C)C)[C@H]2C(C)C |  | 39 |  | 31 | 62 |  |  |

| SMILES | GI50 ([1]; 72 h) [µM] | IC50 [2] [µM] | GI50 ([3]; 72 h) [µM] | GI50 ([1]; Homo sapiens, DU-145, 72 h) [µM] | GI50 ([3]; Homo sapiens, A549, 72 h) [µM] | Activity [4] | inhibition at 10 µM [5] [%] |
| --- | --- | --- | --- | --- | --- | --- | --- |
| COc1cc([C@@H]2c3cc4c(cc3[C@@H](O[C@@H]3O[C@@H]5CO[C@@H](C)O[C@H]5[C@H](O)[C@H]3O)[C@H]3COC(=O)[C@H]23)OCO4)cc(OC)c1O [ETOPOSIDE] |  |  |  | 13 | 10 |  | 47 |
| CC(C)C(=O)c1c(O)c2c(c3c1OC1=C(C(=O)C(C)(C)C(=O)C1(C)C)[C@H]3C(C)C)OC1=C(C(=O)C(C)(C)C(=O)C1(C)C)[C@H]2C(C)C |  | 32 |  | 38 | 65 |  |  |
| CC(C)Oc1cc2c(c3c1[C@H](C(C)C)C1=C(O3)C(C)(C)C(=O)C(C)(C)C1=O)[C@@H](C(C)C)C1=C(O2)C(C)(C)C(=O)C(C)(C)C1=O |  | 28 |  | 20 | 33 |  |  |
| CC(C)C(=O)c1c(O)c2c(c3c1OC1=C(C(=O)C(C)(C)C(=O)C1(C)C)[C@@H]3C(C)C)OC1=C(C(=O)C(C)(C)C(=O)C1(C)C)[C@@H]2C(C)C (racemic) |  | 33 |  | 26 | 37 |  |  |
| CC(C)CCOc1cc2c(c3c1[C@H](C(C)C)C1=C(O3)C(C)(C)C(=O)C(C)(C)C1=O)[C@@H](C(C)C)C1=C(O2)C(C)(C)C(=O)C(C)(C)C1=O |  | 26 |  | 19 | 37 |  |  |
| CCOc1cc2c(c3c1[C@H](C(C)C)C1=C(O3)C(C)(C)C(=O)C(C)(C)C1=O)[C@@H](C(C)C)C1=C(O2)C(C)(C)C(=O)C(C)(C)C1=O |  | 21 |  | 12 | 24 |  |  |
| CC(C)C(=O)c1c(O)c2c(c3c1OC1=C(C(=O)C(C)(C)C(=O)C1(C)C)[C@H]3C(C)C)OC1=C(C(=O)C(C)(C)C(=O)C1(C)C)[C@@H]2C(C)C | 41 | 50 | 60 |  |  |  |  |
| CC(C)[C@@H]1C2=C(Oc3c1c(OCCCN(C)C)cc1c3[C@@H](C(C)C)C3=C(O1)C(C)(C)C(=O)C(C)(C)C3=O)C(C)(C)C(=O)C(C)(C)C2=O |  | 10 |  | 23 | 46 |  |  |
| CC(COc1cc2c(c3c1[C@H](C(C)C)C1=C(O3)C(C)(C)C(=O)C(C)(C)C1=O)[C@@H](C(C)C)C1=C(O2)C(C)(C)C(=O)C(C)(C)C1=O)CN(C)C (some centres not stated) |  | 12 |  | 28 | 46 |  |  |
| CC(C)[C@@H]1C2=C(Oc3c1c(OCC1CC1)cc1c3[C@@H](C(C)C)C3=C(O1)C(C)(C)C(=O)C(C)(C)C3=O)C(C)(C)C(=O)C(C)(C)C2=O |  | 42 |  | 13 | 24 |  |  |
| CC(C)[C@@H]1C2=C(Oc3c1c(OCCCN1CCN(C)CC1)cc1c3[C@@H](C(C)C)C3=C(O1)C(C)(C)C(=O)C(C)(C)C3=O)C(C)(C)C(=O)C(C)(C)C2=O |  | 20 |  | 51 | 63 |  |  |
| CC(C)C(=O)c1c(O)c2c(c3c1OC1=C(C(=O)C(C)(C)C(=O)C1(C)C)[C@@H]3C(C)C)OC1=C(C(=O)C(C)(C)C(=O)C1(C)C)[C@@H]2C(C)C | 15 | 48 | 28 |  |  |  |  |
| CC(C)[C@@H]1C2=C(Oc3c1c(OCCN1CCCC1)cc1c3[C@@H](C(C)C)C3=C(O1)C(C)(C)C(=O)C(C)(C)C3=O)C(C)(C)C(=O)C(C)(C)C2=O |  | 22 |  | 22 | 46 |  |  |
| CC(C)[C@@H]1C2=C(Oc3c1c(OCCCN1CCOCC1)cc1c3[C@@H](C(C)C)C3=C(O1)C(C)(C)C(=O)C(C)(C)C3=O)C(C)(C)C(=O)C(C)(C)C2=O |  | 20 |  | 26 | 65.7 |  |  |
| CC(C)[C@@H]1C2=C(Oc3c1c(OCCCc1ccccc1)cc1c3[C@@H](C(C)C)C3=C(O1)C(C)(C)C(=O)C(C)(C)C3=O)C(C)(C)C(=O)C(C)(C)C2=O |  | 26 |  | 29 | 43 |  |  |
| COc1ccc(COc2cc3c(c4c2[C@H](C(C)C)C2=C(O4)C(C)(C)C(=O)C(C)(C)C2=O)[C@@H](C(C)C)C2=C(O3)C(C)(C)C(=O)C(C)(C)C2=O)cc1 |  | 56 |  | 40 | 32 |  |  |
| CC(C)[C@@H]1C2=C(Oc3c1c(OCCN1CCOCC1)cc1c3[C@@H](C(C)C)C3=C(O1)C(C)(C)C(=O)C(C)(C)C3=O)C(C)(C)C(=O)C(C)(C)C2=O |  | 25 |  | 27 | 39.6 |  |  |
| CCN(CC)CCCOc1cc2c(c3c1[C@H](C(C)C)C1=C(O3)C(C)(C)C(=O)C(C)(C)C1=O)[C@@H](C(C)C)C1=C(O2)C(C)(C)C(=O)C(C)(C)C1=O |  | 20 |  | 25 | 85 |  |  |
| CC(C)[C@@H]1C2=C(Oc3c1c(O)cc1c3[C@@H](C(C)C)C3=C(O1)C(C)(C)C(=O)C(C)(C)C3=O)C(C)(C)C(=O)C(C)(C)C2=O |  | 25 |  | 23 | 27 |  |  |
